{"source": "ChEMBL document CHEMBL1201862", "about": "“PubChem BioAssay data set” (2004)", "key": {"Genome polyprotein": {"target": "Genome polyprotein (Hepatitis C virus, UniProt Q2Q167)", "sequence (Q2Q167 whole entry)": "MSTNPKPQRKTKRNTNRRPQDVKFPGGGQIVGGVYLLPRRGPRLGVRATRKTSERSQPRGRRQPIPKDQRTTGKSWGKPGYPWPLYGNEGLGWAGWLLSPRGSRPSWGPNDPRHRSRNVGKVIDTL", "test": "HCV core protein dimerization inhibitors, dose response, biochemical, TR-FRET (AID 2159);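 further: blocks dimerization of HCV core protein measured by TR-FRET between tagged core106 pairs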", "design": "species or system Hepacivirus hominis"}, "[1]": {"target": "E3 ubiquitin-protein ligase Mdm2 (Homo sapiens, UniProt Q00987)", "sequence (Q00987 whole entry)": "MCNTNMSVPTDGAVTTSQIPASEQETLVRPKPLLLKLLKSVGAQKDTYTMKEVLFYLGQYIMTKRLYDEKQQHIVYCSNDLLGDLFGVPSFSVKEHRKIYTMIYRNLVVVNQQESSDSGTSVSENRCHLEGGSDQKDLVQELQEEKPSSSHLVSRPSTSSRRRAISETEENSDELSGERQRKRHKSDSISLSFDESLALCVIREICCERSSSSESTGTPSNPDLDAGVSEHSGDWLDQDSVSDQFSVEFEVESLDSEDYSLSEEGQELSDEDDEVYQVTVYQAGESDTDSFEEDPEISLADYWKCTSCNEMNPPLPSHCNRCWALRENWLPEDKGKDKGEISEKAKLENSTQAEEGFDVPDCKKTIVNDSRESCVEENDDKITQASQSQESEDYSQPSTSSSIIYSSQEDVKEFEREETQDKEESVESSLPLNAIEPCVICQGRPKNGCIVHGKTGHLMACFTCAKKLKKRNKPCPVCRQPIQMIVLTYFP", "test": "enhancers of MDM2-luciferase reporter signal, concentration-effect titration, project on inhibitors of MDM2 ubiquitin ligase, cellular assay, luminescent readout, 384-well plate format (AID 1394);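 further: MDM2 E3 inhibitors raise luminescence so EC50 is for signal enhancement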", "format": "functional"}, "[2]": {"test": "cytotoxicity in HPDE-C7 cells, cell-based, fluorescence, HTS (AID 430)", "format": "functional", "settings": "Homo sapiens"}, "[3]": {"test": "Vero cell cytotoxicity, dose response, cytotoxicity control for Vif-APOBEC3G degradation inhibitor project, Vero cells (AID 1117358)", "format": "functional", "settings": "Human immunodeficiency virus 1, Vero"}, "[4]": {"test": "growth suppression of beta-catenin-knockout colon cells, dose response, cell-based, HCT116, human colon tumor (AID 1045);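 further: HCT116 colon tumor cells with beta catenin knocked out; cells exposed to compound for 60 hours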", "format": "functional"}, "[5]": {"test": "cytotoxicity in KRAS-transformed pancreatic duct cells, primary screen, cell-based, fluorescence, HTS (AID 431);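 further: cell line used: HPDE-C7K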", "format": "functional", "settings": "Homo sapiens"}, "[6]": {"target": "T1, Hepatocyte nuclear factor 4-alpha (Homo sapiens, UniProt P41235)", "T1 sequence (P41235 whole entry)": "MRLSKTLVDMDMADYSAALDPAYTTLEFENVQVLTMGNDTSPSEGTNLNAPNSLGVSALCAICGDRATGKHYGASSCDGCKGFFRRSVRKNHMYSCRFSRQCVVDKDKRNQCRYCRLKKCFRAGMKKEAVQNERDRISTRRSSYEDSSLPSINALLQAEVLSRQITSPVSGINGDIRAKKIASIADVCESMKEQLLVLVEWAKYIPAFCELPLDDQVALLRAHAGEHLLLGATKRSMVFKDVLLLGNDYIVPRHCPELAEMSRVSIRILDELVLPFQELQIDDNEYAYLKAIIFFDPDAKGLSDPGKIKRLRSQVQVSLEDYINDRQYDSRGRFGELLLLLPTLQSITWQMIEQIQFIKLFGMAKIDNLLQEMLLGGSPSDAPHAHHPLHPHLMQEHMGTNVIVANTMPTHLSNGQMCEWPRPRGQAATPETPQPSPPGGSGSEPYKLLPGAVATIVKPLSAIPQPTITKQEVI", "format": "functional, cell-based"}, "[7]": {"test": "growth suppression of PTEN-null colon cells, dose response, cell-based, HCT116 PTEN knockout (AID 1047);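 further: HCT116 colon tumor cells with PTEN knocked out; cells exposed to compound for 60 hours before readout; potency for loss of cell viability measured by luminescence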", "format": "functional"}, "[8]": {"test": "cytotoxicity in HEK-293T cells, dose response, cytotoxicity control for BCR NF-kB inhibitor project, luminescence, B-cell screen hits (AID 489021);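 further: cells exposed to compound for about 14 hours before viability readout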", "format": "functional, cell-based"}, "H4": {"test_system": "H4", "test": "Luminescence Cell-Based Dose Response HTS to Identify Activators of 5'UTR Stem-Loop Driven Prion Protein mRNA Translation in H4 Neuroglioblastoma Cells. [Related pubchem assays: 1829 (Project Summary), 1814 (Primary HTS)]", "format": "functional", "settings": "Homo sapiens"}, "[9]": {"test": "Luminescence Cell-Based Dose Response HTS to Identify Activators of Luciferase Translation or Activity in H4 […] Cells. [Related pubchem assays: 1829 (Project Summary), 1814 (Primary HTS)]", "format": "functional"}, "[10]": {"test": "Luminescence Cell-Based Dose Confirmation to Identify Activators of 5'UTR Stem-Loop Driven Alpha-Synuclein mRNA Translation in H4 Neuroglioblastoma Cells. [Related pubchem assays: 1829 (Project Summary), 1814 (Primary HTS)]", "format": "functional"}, "[11]": {"test": "Luminescence Cell-Based Dose Response to Identify Activators of Luciferase Translation or Activity in H4-C Neuroglioblastoma Cells. [Related pubchem assays: 1829 (Project Summary), 1814 (Primary HTS)]", "format": "functional"}, "[12]": {"test": "Luminescence Cell-Based Dose Response to Identify Activators of 5'UTR Stem-Loop Driven Prion Protein mRNA Translation in H4-C Neuroglioblastoma Cells. [Related pubchem assays: 1829 (Project Summary), 1814 (Primary HTS)]", "format": "functional"}, "[13]": {"test": "Luminescence Cell-Based Dose Confirmation HTS to Identify Activators of 5'UTR Stem-Loop Driven Alpha-Synuclein mRNA Translation in H4 Neuroglioblastoma Cells. [Related pubchem assays: 1829 (Project Summary), 1814 (Primary HTS)]", "format": "functional"}, "[14]": {"target": "Heat shock protein HSP 90-alpha (Homo sapiens, UniProt P07900)", "test": "Luminescence-based dose response biochemical high throughput screening assay for inhibitors of the Heat Shock Protein 90 (HSP90). [Related pubchem assays: 1831 (Summary AID.), 1846 (Confirmation screen.), 1789 (Primary screen.)]"}, "HEK293 [15]": {"test_system": "HEK293", "test": "NOD1 signaling inhibitors, primary screen, cell-based, luminescence, uHTS (AID 1578)", "format": "functional", "settings": "Homo sapiens"}, "HEK293 [16]": {"test_system": "HEK293", "test": "cells", "settings": "Homo sapiens"}, "[17]": {"target": "T2, Nucleotide-binding oligomerization domain-containing protein 1 (Homo sapiens, UniProt Q9Y239)", "T2 sequence (Q9Y239 whole entry)": "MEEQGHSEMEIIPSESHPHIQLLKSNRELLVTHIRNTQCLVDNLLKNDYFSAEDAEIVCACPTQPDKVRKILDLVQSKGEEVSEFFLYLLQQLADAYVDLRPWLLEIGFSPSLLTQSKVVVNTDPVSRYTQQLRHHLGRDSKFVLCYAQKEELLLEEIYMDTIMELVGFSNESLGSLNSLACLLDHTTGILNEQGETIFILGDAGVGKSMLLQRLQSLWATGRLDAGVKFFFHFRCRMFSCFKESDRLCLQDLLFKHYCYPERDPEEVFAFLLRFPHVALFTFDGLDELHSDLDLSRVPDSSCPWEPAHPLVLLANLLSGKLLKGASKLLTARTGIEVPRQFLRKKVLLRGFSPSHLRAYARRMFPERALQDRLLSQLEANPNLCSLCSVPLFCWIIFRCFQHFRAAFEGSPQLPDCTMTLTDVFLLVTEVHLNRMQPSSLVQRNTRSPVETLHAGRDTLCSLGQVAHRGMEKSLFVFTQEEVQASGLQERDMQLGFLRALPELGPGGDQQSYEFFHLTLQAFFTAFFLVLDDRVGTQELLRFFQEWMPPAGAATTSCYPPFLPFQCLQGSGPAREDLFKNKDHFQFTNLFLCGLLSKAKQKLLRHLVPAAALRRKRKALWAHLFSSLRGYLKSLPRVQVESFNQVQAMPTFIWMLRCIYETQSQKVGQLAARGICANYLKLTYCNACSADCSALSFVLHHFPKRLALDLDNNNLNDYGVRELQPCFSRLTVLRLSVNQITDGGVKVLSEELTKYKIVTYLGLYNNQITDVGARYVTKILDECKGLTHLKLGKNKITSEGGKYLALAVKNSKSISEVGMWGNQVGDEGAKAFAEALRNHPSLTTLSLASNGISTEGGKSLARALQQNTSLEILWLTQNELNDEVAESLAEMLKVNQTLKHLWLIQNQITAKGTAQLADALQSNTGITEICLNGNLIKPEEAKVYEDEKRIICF", "test": "NOD1 signaling inhibitors, SAR follow-up, revised (AID 2333)", "format": "functional"}, "ELAV-like protein 1": {"target": "ELAV-like protein 1 (Homo sapiens, UniProt Q15717)", "sequence (Q15717 whole entry)": "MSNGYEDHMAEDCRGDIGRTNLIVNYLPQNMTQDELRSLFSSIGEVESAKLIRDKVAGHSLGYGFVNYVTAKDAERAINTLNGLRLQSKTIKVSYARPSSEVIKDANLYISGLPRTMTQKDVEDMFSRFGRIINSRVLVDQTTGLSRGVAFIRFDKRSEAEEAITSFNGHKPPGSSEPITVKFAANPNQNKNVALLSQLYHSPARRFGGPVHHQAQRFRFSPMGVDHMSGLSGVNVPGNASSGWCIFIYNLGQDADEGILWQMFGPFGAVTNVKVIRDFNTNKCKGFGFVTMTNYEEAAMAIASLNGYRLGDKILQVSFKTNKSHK", "test": "Identify HuR specific inhibitors.", "format": "functional"}, "HEK293 [18]": {"test_system": "HEK293", "test": "NOD2 signaling inhibitors in MDP-stimulated cells, cell-based, uHTS, luminescence (AID 2001)", "format": "functional", "settings": "Homo sapiens"}, "Tumor necrosis factor": {"target": "Tumor necrosis factor (Homo sapiens, UniProt P01375)", "sequence (P01375 whole entry)": "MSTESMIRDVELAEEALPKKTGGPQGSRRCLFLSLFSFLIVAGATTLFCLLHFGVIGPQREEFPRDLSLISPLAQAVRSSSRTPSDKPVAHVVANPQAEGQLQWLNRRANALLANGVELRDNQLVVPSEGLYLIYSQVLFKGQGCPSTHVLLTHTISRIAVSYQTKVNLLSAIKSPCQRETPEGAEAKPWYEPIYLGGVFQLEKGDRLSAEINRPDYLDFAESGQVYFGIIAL", "test": "TNFa-triggered NF-kB activation inhibitors, SAR follow-up, cell-based, revised (AID 2337)", "format": "functional"}, "HEK293 [19]": {"test_system": "HEK293", "test": "cells", "format": "functional, cell-based", "settings": "Homo sapiens"}, "HEK293 [20]": {"test_system": "HEK293", "test": "cells", "format": "functional, cell-based", "settings": "Homo sapiens", "remark": "listed apart in the source"}, "[21]": {"target": "Voltage-dependent T-type calcium channel subunit alpha-1H (Homo sapiens, UniProt O95180)", "sequence (O95180 whole entry)": "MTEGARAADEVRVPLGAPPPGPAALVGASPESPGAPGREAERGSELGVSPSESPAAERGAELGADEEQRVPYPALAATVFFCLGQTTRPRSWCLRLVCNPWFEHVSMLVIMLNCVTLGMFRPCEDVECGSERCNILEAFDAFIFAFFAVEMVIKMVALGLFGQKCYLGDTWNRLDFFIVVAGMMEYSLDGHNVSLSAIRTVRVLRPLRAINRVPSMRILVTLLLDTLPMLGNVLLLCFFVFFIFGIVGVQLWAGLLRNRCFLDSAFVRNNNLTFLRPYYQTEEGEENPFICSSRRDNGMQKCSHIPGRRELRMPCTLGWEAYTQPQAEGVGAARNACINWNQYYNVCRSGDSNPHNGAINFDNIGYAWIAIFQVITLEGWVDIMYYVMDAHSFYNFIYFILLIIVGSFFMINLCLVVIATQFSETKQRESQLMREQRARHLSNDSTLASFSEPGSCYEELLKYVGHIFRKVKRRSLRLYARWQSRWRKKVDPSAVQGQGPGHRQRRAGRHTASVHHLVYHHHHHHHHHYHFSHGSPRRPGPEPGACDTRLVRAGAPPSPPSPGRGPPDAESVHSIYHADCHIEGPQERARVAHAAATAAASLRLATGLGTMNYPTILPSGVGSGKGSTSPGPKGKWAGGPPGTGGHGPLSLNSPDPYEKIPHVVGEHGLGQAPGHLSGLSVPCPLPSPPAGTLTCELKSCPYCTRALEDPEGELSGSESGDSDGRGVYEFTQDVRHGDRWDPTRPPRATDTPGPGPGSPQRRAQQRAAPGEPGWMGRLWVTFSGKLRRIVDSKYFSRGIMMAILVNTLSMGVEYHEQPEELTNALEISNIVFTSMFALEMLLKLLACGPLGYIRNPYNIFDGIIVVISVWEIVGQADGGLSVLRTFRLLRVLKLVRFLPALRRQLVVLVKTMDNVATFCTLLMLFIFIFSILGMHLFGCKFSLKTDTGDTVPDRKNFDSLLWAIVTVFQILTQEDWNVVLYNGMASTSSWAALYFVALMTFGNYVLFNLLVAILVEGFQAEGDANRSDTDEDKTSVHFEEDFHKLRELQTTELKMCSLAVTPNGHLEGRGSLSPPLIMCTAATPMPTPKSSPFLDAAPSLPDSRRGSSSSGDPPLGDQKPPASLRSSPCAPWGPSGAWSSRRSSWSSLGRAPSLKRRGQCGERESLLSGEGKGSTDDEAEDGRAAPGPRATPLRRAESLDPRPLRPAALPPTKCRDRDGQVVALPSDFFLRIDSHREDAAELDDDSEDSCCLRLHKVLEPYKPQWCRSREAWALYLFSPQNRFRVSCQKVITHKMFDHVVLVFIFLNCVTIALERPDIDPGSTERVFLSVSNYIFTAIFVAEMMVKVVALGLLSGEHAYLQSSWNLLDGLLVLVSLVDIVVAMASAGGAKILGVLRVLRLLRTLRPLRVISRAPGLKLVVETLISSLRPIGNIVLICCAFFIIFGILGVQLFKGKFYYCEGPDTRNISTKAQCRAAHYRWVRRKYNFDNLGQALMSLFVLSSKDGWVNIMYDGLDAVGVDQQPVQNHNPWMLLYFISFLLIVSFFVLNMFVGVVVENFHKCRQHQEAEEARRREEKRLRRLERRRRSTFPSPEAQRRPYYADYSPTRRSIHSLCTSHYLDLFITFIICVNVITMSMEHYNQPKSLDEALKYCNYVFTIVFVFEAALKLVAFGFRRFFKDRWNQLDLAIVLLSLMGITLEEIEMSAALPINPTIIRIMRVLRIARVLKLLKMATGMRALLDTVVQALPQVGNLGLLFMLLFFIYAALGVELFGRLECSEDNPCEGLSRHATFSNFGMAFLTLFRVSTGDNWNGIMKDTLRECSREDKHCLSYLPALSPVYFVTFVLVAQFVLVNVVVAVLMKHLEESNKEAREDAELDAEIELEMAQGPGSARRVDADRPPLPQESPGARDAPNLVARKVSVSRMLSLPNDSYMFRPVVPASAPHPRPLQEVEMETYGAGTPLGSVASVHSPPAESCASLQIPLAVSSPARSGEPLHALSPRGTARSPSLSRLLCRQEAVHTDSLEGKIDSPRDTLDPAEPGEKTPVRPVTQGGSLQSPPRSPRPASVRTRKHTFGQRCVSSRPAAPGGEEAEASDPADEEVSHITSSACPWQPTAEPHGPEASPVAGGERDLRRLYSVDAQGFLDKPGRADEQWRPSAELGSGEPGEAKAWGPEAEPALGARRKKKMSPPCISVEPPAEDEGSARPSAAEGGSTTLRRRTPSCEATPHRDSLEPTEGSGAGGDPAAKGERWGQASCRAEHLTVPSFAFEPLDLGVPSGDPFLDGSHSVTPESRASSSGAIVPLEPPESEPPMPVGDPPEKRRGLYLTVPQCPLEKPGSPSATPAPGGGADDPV", "format": "functional"}, "[22]": {"target": "Protein-tyrosine kinase 2-beta (Homo sapiens, UniProt Q14289)", "sequence (Q14289 whole entry)": "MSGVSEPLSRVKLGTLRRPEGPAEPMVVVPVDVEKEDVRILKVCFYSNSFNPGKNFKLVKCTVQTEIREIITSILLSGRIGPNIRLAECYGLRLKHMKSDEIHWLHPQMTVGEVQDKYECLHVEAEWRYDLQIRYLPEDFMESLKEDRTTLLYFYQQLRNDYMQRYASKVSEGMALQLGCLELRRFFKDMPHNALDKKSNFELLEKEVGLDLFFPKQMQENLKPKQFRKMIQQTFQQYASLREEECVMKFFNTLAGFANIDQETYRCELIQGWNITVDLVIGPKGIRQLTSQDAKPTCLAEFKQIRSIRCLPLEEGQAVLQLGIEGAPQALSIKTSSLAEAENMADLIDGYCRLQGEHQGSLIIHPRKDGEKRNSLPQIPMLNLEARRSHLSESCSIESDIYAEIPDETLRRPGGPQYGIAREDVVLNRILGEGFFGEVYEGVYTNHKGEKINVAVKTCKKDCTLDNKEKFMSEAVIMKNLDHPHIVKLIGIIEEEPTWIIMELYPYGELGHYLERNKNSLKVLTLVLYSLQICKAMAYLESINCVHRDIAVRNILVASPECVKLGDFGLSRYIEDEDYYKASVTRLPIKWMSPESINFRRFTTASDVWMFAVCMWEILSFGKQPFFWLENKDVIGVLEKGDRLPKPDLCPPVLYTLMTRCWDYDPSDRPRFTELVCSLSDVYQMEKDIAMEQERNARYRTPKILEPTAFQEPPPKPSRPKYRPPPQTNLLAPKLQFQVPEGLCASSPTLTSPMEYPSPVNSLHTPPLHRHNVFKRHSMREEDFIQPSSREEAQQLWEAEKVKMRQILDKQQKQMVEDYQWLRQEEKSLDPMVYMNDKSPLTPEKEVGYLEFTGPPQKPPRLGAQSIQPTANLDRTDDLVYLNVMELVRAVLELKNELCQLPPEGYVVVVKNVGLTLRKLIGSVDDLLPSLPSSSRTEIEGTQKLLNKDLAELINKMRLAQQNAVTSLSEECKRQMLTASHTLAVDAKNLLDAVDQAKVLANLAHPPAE"}}, "note": "Calls of active or inactive are those of the source.", "data": [{"compound": "Cc1cc(C(=O)OCC(=O)c2ccc(Cl)c([N+](=O)[O-])c2)c2cccc(C)c2n1", "values": [{"measurement": "IC50", "setting": "Genome polyprotein", "value": "> 49.8 µM (not active)"}]}, {"compound": "CCOc1ccc(NC(=O)CN(C)S(=O)(=O)c2c[nH]cn2)cc1", "values": [{"measurement": "EC50", "setting": "[1]", "value": "25 µM (not active)"}]}, {"compound": "CC1=CC(C)(C)Nc2ccc(OC(=O)c3cccnc3)cc21", "values": [{"measurement": "EC50", "setting": "[2]", "value": "8.6 µM (active)"}, {"measurement": "CC50", "setting": "[3]", "value": "34.4 µM (active)"}, {"measurement": "EC50", "setting": "[4]", "value": "5.85 µM (active)"}, {"measurement": "EC50", "setting": "[5]", "value": "8.23 µM (active)"}, {"measurement": "IC50", "setting": "[6]", "value": "3.22 µM (active)"}, {"measurement": "EC50", "setting": "[7]", "value": "7.33 µM (active)"}, {"measurement": "IC50", "setting": "[8]", "value": "62.5 µM (inactive)"}]}, {"compound": "Cc1csc(C(C#N)C(=O)c2cc3ccccc3o2)n1", "note": "(stereo unspecified)", "values": [{"measurement": "EC50", "setting": "H4", "value": "3.63 µM (active)"}, {"measurement": "EC50", "setting": "[9]", "value": "0.387 µM (active)"}, {"measurement": "EC50", "setting": "[10]", "value": "0.926 µM (active)"}, {"measurement": "EC50", "setting": "[11]", "value": "9.73 µM (active)"}, {"measurement": "EC50", "setting": "[12]", "value": "1.46 µM (active)"}, {"measurement": "EC50", "setting": "[13]", "value": "< 0.1 µM (active)"}]}, {"compound": "CCOC(=O)c1csc(NC(=O)c2ccc(OCC)cc2)n1", "values": [{"measurement": "IC50", "setting": "[14]", "value": "0.88 µM (active)"}]}, {"compound": "O=C(Nc1cccc([N+](=O)[O-])c1)c1ccc2ccccc2c1O", "values": [{"measurement": "EC50", "setting": "HEK293 [15]", "value": "3.05 µM (active)"}, {"measurement": "IC50", "setting": "HEK293 [16]", "value": "13.2 µM (active)"}, {"measurement": "IC50", "setting": "[17]", "value": "4.36 µM (active)"}, {"measurement": "IC50", "setting": "ELAV-like protein 1", "value": "97.4 µM (inactive)"}, {"measurement": "IC50", "setting": "HEK293 [18]", "value": "6.08 µM (inactive)"}, {"measurement": "IC50", "setting": "Tumor necrosis factor", "value": "4.72 µM (active)"}, {"measurement": "IC50", "setting": "HEK293 [19]", "value": "6.83 µM (active)"}, {"measurement": "IC50", "setting": "HEK293 [20]", "value": "> 20 µM (inactive)"}]}, {"compound": "Cc1oc(-c2ccccc2)cc1C(=O)Nc1cccc2ccccc12", "values": [{"measurement": "EC50", "setting": "[21]", "value": "18 µM (active)"}, {"measurement": "IC50", "setting": "[22]", "value": "> 69.5 µM (not active)"}]}]}
